Legend:
adult males = tested on: adult males; parameters: method as in Drotman [1980]; settings: ref Drotman [1980], cited from earlier work; for Amounts in the blood / Radioactivity recovered after 144 h in urine, feces, and air: human males, 50 mg capsule; for Excreted within the first 24 h: radiolabeled, human male volunteers
[1] = tested on: female Colworth Wistar rats; parameters: method as in Unilever [1978]; settings: 14C-labelled, oral, rat, ref Unilever [1978], cited from earlier work
human hepatocytes [2] = assay: Metabolite profiling by LC-MS in hepatocytes; settings: for Number of metabolites detected: human hepatocytes
Experimental: (§2) The hepatocytes were thawed and re-suspended in Celsis InVitro KHB medium (pH 7.4). […] The samples were collected and stored at − 20 °C for further analysis.
(§3) The in vitro metabolism of the five individual homologue AEs (i.e. C8EO4, C10EO5, C12EO4, C16EO8, and C18EO3) was analyzed by liquid chromatography–mass spectrometry (LC–MS). The UPLC-Q-Exactive Orbitrap MS system consisted of a Thermo Vanquish Horizon UHPLC with an autosampler, vacuum degasser, photodiode array (PDA) detector (210–500 nm), and column oven coupled to a Q-Exactive Orbitrap Focus mass spectrometer (Thermo Fisher Scientific, Waltham, MA, USA). The analytical column used was a Waters Acquity BEH C8 2.1 × 50 mm with 1.7 particle size (Waters Corp, Milford, MA, USA). The temperature of the column oven was 40 °C, and the injection volume was 4 μl. The aqueous eluent (A) was 0.1% formic acid (B) was acetonitrile. […] The eluent flow rate was 0.5 ml/min and the flow was directed to the MS through a PDA detector. The data acquisition was performed using positive Electrospray Ionization (ESI+) polarity with a capillary voltage of 3000 V. Capillary temperature was 320 °C and auxiliary gas temperature was 500 °C. The mass spectrometer was operated in the data-dependent MS2 mode, which acquires full-scan MS and MS/MS fragment ion data in the same run. Scan was performed with a resolution of 35,000 (full width at half maximum at m/z 200), while an Automated Gain Control target of a million ions, maximum injection time of 100 ms, and a scan range of 100–1000 m/z were used. […] Nitrogen was used as a sheath gas with 50 units, auxiliary gas with 10 units and as a sweep gas with 5 units. Ion chromatograms were extracted from the total ion chromatograms using calculated monoisotopic accurate masses with 5 mDa window. Calibration curves were generated using an external standard. The data were processed with Thermo Xcalibur 4.1.31.9 software.

hamster hepatocytes [3] = assay: Metabolite profiling by LC-MS in hepatocytes; settings: for Number of metabolites detected: hamster hepatocytes
Experimental: as §2, §3

[4] = Metabolic stability in liver S9 fraction (disappearance, half-life, CLint)
Experimental: (§1) Calibration curves were generated using an external standard.
Intrinsic in vitro clearance was calculated as follows: […]

[5] = Metabolic stability in cryopreserved hepatocytes (disappearance, half-life, CLint); settings: Sprague Dawley, rat, pooled cryopreserved hepatocytes, pH 7.4
Experimental: (§4) The metabolic stability assay was performed in a 48-well plate format (duplicate with cells and single without cells).
as §2
(§5) The UPLC-Q-Exactive Orbitrap MS system consisted of a Thermo Vanquish Horizon UHPLC with an autosampler, vacuum degasser, photodiode array (PDA) detector (210–500 nm), and column oven coupled to a Q-Exactive Orbitrap Focus mass spectrometer (Thermo Fisher Scientific, Waltham, MA, USA). The analytical column used was a Waters Acquity BEH C8 2.1 × 50 mm with 1.7 particle size (Waters Corp, Milford, MA, USA). The temperature of the column oven was 40 °C, and the injection volume was 4 μl. The aqueous eluent (A) was 0.1% formic acid (B) was acetonitrile. […] The eluent flow rate was 0.5 ml/min and the flow was directed to the MS through a PDA detector. The data acquisition was performed using positive Electrospray Ionization (ESI+) polarity with a capillary voltage of 3000 V. Capillary temperature was 320 °C and auxiliary gas temperature was 500 °C. The mass spectrometer was operated in the data-dependent MS2 mode, which acquires full-scan MS and MS/MS fragment ion data in the same run. Scan was performed with a resolution of 35,000 (full width at half maximum at m/z 200), while an Automated Gain Control target of a million ions, maximum injection time of 100 ms, and a scan range of 100–1000 m/z were used. […] Nitrogen was used as a sheath gas with 50 units, auxiliary gas with 10 units and as a sweep gas with 5 units. Ion chromatograms were extracted from the total ion chromatograms using calculated monoisotopic accurate masses with 5 mDa window. Calibration curves were generated using an external standard. The data were processed with Thermo Xcalibur 4.1.31.9 software.
(§6) The first-order rate constants k (min^−1) of the metabolism were obtained from the slope of time versus ln (% remaining) plots using Excel software. All time points (log-scale) were used in fitting the rate constant k based on visual inspection of the curves.
(§7) The in vitro half-life (t1/2) of the test compound(s) is defined as: t1/2=ln2/k
(§8) CLint,inc = k*V/(M), where V is the volume of the incubation and M is the number of cells or amount of S9 protein in the incubation.

[6] = Metabolic stability in liver S9 fraction (disappearance, half-life, CLint); settings: human
Experimental: The metabolic stability assay was performed in a 48-well plate format (duplicate with cofactors and single without cofactors).
Each incubation contained test compound (final concentration of 1 or 10 µM), liver S9 (1.5 mg/ml protein content), Cofactors (1 mM NADPH + 1 mM UDPGA + 0.2 mM PAPS), MgCl2 (2 mM), and potassium phosphate buffer (100 mM at pH 7.4). […] The incubation was carried out at 37 °C for 60 min with and without cofactors. […] The samples were collected and stored at − 20 °C for further analysis.
as §3, §6, §7, §8

human hepatocytes [7] = assay: Metabolic stability in cryopreserved hepatocytes (disappearance, half-life, CLint); settings: human hepatocytes, range over 1 and 10 µM
Experimental: as §4, §2, §5, §6, §7, §8

[8] = as above; settings: human, pooled cryopreserved hepatocytes, pH 7.4
Experimental: as §4, §2, §5, §6, §7, §8

[9] = Metabolite profiling by LC-MS in buffer (incubation without cells); settings: metabolite profile of C16EO8, 10 µM incubation, 120 min, buffer without cells
Experimental: as §2, §3

rat hepatocytes = assay: Metabolite profiling by LC-MS in hepatocytes; settings: for Number of metabolites detected: rat hepatocytes
Experimental: as §2, §3

[10] = Metabolite profiling by LC-MS in liver S9
Text: as §1

hamster hepatocytes [11] = assay: Metabolic stability in cryopreserved hepatocytes (disappearance, half-life, CLint); settings: hamster hepatocytes, range over 1 and 10 µM
Experimental: as §4, §2, §5, §6, §7, §8

[12] = as above; settings: Syrian, hamster, pooled cryopreserved hepatocytes, pH 7.4
Experimental: as §4, §2, §5, §6, §7, §8

[13] = metabolite profile of C16EO8, 10 µM incubation, 120 min
[14] = Sprague-Dawley, rat, pooled liver S9, pH 7.4
[15] = Syrian, hamster, pooled liver S9, pH 7.4
[16] = pooled liver S9, pH 7.4, Half-lives t1/2, Liver S9, 1 μM
[17] = metabolite profile of C16EO8, 10 µM incubation, 60 min, with cofactors
[18] = metabolite profile of C16EO8, 10 µM incubation, 60 min, without cofactors
[19] = metabolite profile of C18EO3, 10 µM incubation, 120 min
[20] = metabolite profile of C18EO3, 10 µM incubation, 60 min
[21] = Sprague-Dawley, rat, s9, pH 7.4

## CCCCCCCCCCCCOCCOCCOCCOCCOCCOCCO [C12EO6]
Adult males
  Amounts in the blood: ≤ 1%
  Radioactivity recovered after 144 h in urine, feces, and air: 83–89%
  Excreted within the first 24 h: 75%
[1]; 4 days
  Total recovery in urine, feces, air, and carcass of the administered compound: ~100%
[1]
  14C in air: about 10%

## CCCCCCCCCCCCCOCCOCCOCCOCCOCCOCCO [C13EO6]
Adult males
  Amounts in the blood: ≤ 1%
  Radioactivity recovered after 144 h in urine, feces, and air: 83–89%
  Excreted within the first 24 h: 75%

## CCCCCCCCCCCCCCCCOCCOCCOCCOCCOCCOCCOCCOCCO [C16EO8]
Human hepatocytes [2]
  Number of metabolites detected: 32
Human hepatocytes [2]; [13]
  Hepatocytes, % Human (percentage of the total peak area): 30.3%
Hamster hepatocytes [3]
  Number of metabolites detected: 32
Hamster hepatocytes [3]; [13]
  Hepatocytes, % Hamster (percentage of the total peak area): 10.6%
[4]; [14]
  half-life at 1 µM: 16 min
  microsomal CLint at 1 µM: 29.6 µL/min/mg
[4]; [15]
  half-life at 1 µM: 118 min
  microsomal CLint at 1 µM: 3.92 µL/min/mg
[5]
  half-life at 1 µM: 6.6 min
  half-life at 10 µM: 9.2 min
[6]; pooled liver S9, pH 7.4
  microsomal CLint at 1 µM: 3.33 µL/min/mg
[6]; [16]
  half-life at 1 µM: 139 min
Human hepatocytes [7]
  Initial concentration remaining after 120 min incubation: 11–36%
[8]
  half-life at 1 µM: 39 min
  half-life at 10 µM: 85 min
[9]
  Hepatocytes, % Buffer (percentage of the total peak area): 29.7%
Rat hepatocytes; [13]
  Hepatocytes, % Rat (percentage of the total peak area): 1.0%
Rat hepatocytes
  Number of metabolites detected: 32
[10]; hamster liver S9
  Number of metabolites detected: 33
[10]; human liver S9
  Number of metabolites detected: 33
[10]; [17]
  Liver S9 with cofactors, % Hamster (percentage of the total peak area): 82.7%
  Liver S9 with cofactors, % Human (percentage of the total peak area): 72.0%
  Liver S9 with cofactors, % Rat (percentage of the total peak area): 85.8%
[10]; [18]
  Liver S9 without cofactors, % Hamster (percentage of the total peak area): 97.4%
  Liver S9 without cofactors, % Human (percentage of the total peak area): 96.6%
  Liver S9 without cofactors, % Rat (percentage of the total peak area): 98.7%
[10]; rat liver S9
  Number of metabolites detected: 33
Hamster hepatocytes [11]
  Initial concentration remaining after 120 min incubation: 4–5%
[12]
  half-life at 1 µM: 27 min
  half-life at 10 µM: 30 min

## CCCCCCCCCCCCCCCCCCOCCOCCOCCO [C18EO3]
Human hepatocytes [2]
  Number of metabolites detected: 9
Human hepatocytes [2]; [19]
  Percentage of the total peak area, Hepatocytes, Human: 8.9%
Hamster hepatocytes [3]
  Number of metabolites detected: 4
Hamster hepatocytes [3]; [19]
  Percentage of the total peak area, Hepatocytes, Hamster: 97.5%
[4]; [14]
  half-life at 1 µM: 32 min
  microsomal CLint at 1 µM: 14.6 µL/min/mg
[4]; [15]
  half-life at 1 µM: 29 min
  microsomal CLint at 1 µM: 16.2 µL/min/mg
[6]; pooled liver S9, pH 7.4
  microsomal CLint at 1 µM: 15.9 µL/min/mg
[6]; [16]
  half-life at 1 µM: ≥ 29 min
Rat hepatocytes; [19]
  Percentage of the total peak area, Hepatocytes, Rat: 98.3%
Rat hepatocytes
  Number of metabolites detected: 4
[10]; human liver S9
  Number of metabolites detected: 11
[10]; [20]
  Percentage of the total peak area, Liver S9 with cofactors, Hamster: 79.9%
  Percentage of the total peak area, Liver S9 with cofactors, Human: 58.2%
  Percentage of the total peak area, Liver S9 with cofactors, Rat: 90.3%
  Percentage of the total peak area, Liver S9 without cofactors, Hamster: 100.0%
  Percentage of the total peak area, Liver S9 without cofactors, Human: 100.0%
  Percentage of the total peak area, Liver S9 without cofactors, Rat: 100.0%

## Cc1ncc2n1-c1ccc(Cl)cc1C(c1ccccc1F)=NC2 [midazolam, Midazolam, reference compound]
[4]; [21]
  half-life at 1 µM: 11.8 min
  microsomal CLint at 1 µM: 39.1 µL/min/mg
[4]; Syrian, hamster, s9, pH 7.4
  half-life at 1 µM: < 6.3 min
  microsomal CLint at 1 µM: > 75 µL/min/mg
[6]; s9, pH 7.4
  half-life at 1 µM: < 6.3 min
  microsomal CLint at 1 µM: > 75 µL/min/mg

From article PMC11272826, “Metabolism of alcohol ethoxylates (AEs) in rat, hamster, and human hepatocytes and liver S9: a pilot study for metabolic stability, metabolic pathway, and metabolites identification in vitro and in silico” (Archives of Toxicology, 2024)
